The text below walks through data of patent US7202035B2, “Genetic markers for skatole metabolism” (University of Guelph, priority 1999, dated 2007).

Structures are written as SMILES. Where “and” joins values, the source holds several entries; their conditions need not be identical. Equal entries are not always repeated. Entries after “also recorded” stand apart in the source; their conditions may differ.

A short description of data set [1]: Microsomal incubations of 3MI: production of 3MI metabolites by pig liver microsomes (HPLC). Conditions: for Maximum rate of production: highest of 30 pig liver microsome samples; for Minimum rate of production: lowest of 30 pig liver microsome samples; for Rate of Production (pmol/mg prot./min) ±SD: metabolite formed from 0.4 mM 3MI, mean ±SD, n = 30. The data set is classed as in vitro ADME. On the procedure:
Preparation of microsomes.
Microsomal incubations. […] C. (production of metabolites was determined to be linear over a range of 10 to 40 min). Incubation volumes were 0.5 ml. Reactions were started by the addition of NADPH after 3-minute preincubation periods at 37° C., and stopped with 0.5 ml of ice-cold acetonitrile. Incubations of all 30 samples were run in duplicate and for control incubations NADPH was omitted. […] A 50 μl aliquot of the clear supernatant was analyzed by high-performance liquid chromatography (HPLC).
Analytical chromatography. […] Absorbance was monitored at 250 nm; fluorescence was monitored at excitation and emission wavelengths of 286 and 350 nm, respectively. HPLC analysis for 3MI metabolites was conducted immediately after the incubations. Metabolites were identified by comparison of retention times, and co-injection of standards (spiking the metabolite mixture with authentic standards).

The conditions of data set [2]: rat liver microsomes incubated with 3-MI; cited from earlier work.
Data set [3] relates to aldehyde oxidase. The experiment in a line: Hepatic aldehyde oxidase activity measured as formation of HMOI from HMI by cytosol. The data set is classed as in vitro ADME, pig. The source says: Preparation of porcine liver cytosol.
Chromatographic analysis. […] Absorbance was monitored at 250 nm.

The nature of data set [4]: Skatole level in backfat of CYP2A6 deletion mutant and wild type pigs (colorimetric assay). Conditions: sample with CYP2A6 deletion mutation. The data set is classed as in vivo, pig. The method, then: A backfat sample was collected at the midline point of 11th rib and frozen at −20° C. until assayed for skatole. The skatole content was measured with a colorimetric assay, according to the method described by Gonzalo et al. (2000).

A short description of data set [5]: Measurement of 3MI fat content in backfat (colorimetric assay). The class given is in vivo, pig. The source says: Measurement of 3MI fat content. For the quantitation of the 3MI fat content, a sample of backfat was taken from each pig and its 3MI content measured with a colorimetric assay (Mortensen and Sorensen, 1984). All analysis were done in duplicate.
A short description of data set [6]: Stability of isolated UV-1 in acetonitrile:water solution at room temperature (HPLC at 7-day intervals). The data set is classed as physicochemical. The method, then: UV Spectroscopy. The UV spectrum of the metabolites identified on the basis of their retention times on HPLC (HMOI, 3MOI, I3C, and 2-aminoacetophenone) were identical to those of authentic standards. Spectra of metabolites were recorded using water as solvent, and the wavelengths of maximal absorption were as follows: HMOI: λmax (nm): 208, 253; 3MOI: λmax (nm): 205, 252; I3C: λmax (nm): 221, 278; 2-aminoacetophenone: λmax (nm): 228, 257. The UV spectrum of 3-methylindole was: λmax (nm): 224, 281. The UV spectrum of UV-1 metabolite was: λmax (nm): 204, 238. […] Isolated UV-1 was kept in acetonitrile:water solution at room temperature and the solution was analyzed by HPLC at 7-day intervals for 6 weeks. After 6 weeks only about 25% of the original compound remained and it was observed that UV-1 was converted into 3MOI.

In data set [7] the test system is aldehyde oxidase. Particulars: up to 1.0 mM in the assay mixture.
In data set [8] the test system is aldehyde oxidase. Kind of data set: in vitro. Particulars: male, pig, porcine liver cytosol, pH 7.4, probe HMI (conversion to HMOI).

On to `NCC(=O)c1ccccc1` [2-aminoacetophenone], for which, in data set [1], the “Maximum rate of production” value was 12.7 pmol/mg prot./min and the “Minimum rate of production” value worked out at 3.4 pmol/mg prot./min. In data set [1] (pig liver microsomes), the “Rate of Production (pmol/mg prot./min) ±SD” value turned out to be 7.8 ± 2.4 pmol/mg prot./min and the “Percentage of all 3MI metabolites produced (average)” value (“Percentage … (average)” for short) is given as 0.5%. In data set [2], the “Percentage of the metabolites formed” value is 12%.
With `O=CNCC(=O)c1ccccc1` [2-formamidoacetophenone], in data set [2], the “Percentage of the metabolites formed” value is reported as 33%.
Take `CC1(O)C(=O)Nc2ccccc21` (centres unmarked) [3-hydroxy-3-methyloxindole]: the “Mean aldehyde oxidase activity (nmol HMOI/mg prot./min)” value (from here on “Mean aldehyde oxidase activity”) in the data set with aldehyde oxidase [3] (High accumulator pigs, n 7) is given as 0.80 nmol HMOI/mg prot./min. In addition, the “Mean aldehyde oxidase activity” value with aldehyde oxidase [3] (Low accumulator pigs, n 8) was determined as 2.73 nmol HMOI/mg prot./min. Also, the “Mean aldehyde oxidase activity” value in the data set on aldehyde oxidase [3] (Moderate accumulator pigs, n 15) is recorded as 1.40 nmol HMOI/mg prot./min. Moreover, in the data set with aldehyde oxidase [3] (all samples, 30 pigs), the “AO activity, mean” value was 1.27 nmol HMOI/mg protein/min and the “AO activity, range” value is on record as 0.25 to 3.53 nmol HMOI/mg protein/min. In data set [1], the “Maximum rate of production” value turned out to be 516.5 pmol/mg prot./min and the “Minimum rate of production” value is 118.9 pmol/mg prot./min. For the same compound, in data set [1] (pig liver microsomes), the “Rate of Production (pmol/mg prot./min) ±SD” value is on record as 272.4 ± 91.6 pmol/mg prot./min and the “Percentage … (average)” value came to 18.5%.
Consider `Cc1c[nH]c2ccccc12` [3-methylindole], for which the “Skatole level in fat versus wild type samples” value in data set [4] was “much higher”. Besides, the “Mean 3-methylindole content (mg/kg) in fat” value in data set [5] (High accumulator pigs (0.2 mg/kg or more), n 7) worked out at 0.24 mg/kg; in data set [5] (Low accumulator pigs (0.1 mg/kg or less), n 8), 0.09 mg/kg; in data set [5] (Moderate accumulator pigs (0.11–0.19 mg/kg), n 15) it was 0.15 mg/kg. Also, the “3MI fat content, mean” value in data set [5] (all samples, 30 pigs) is 0.15 mg/kg. In data set [5] (all samples, 30 pigs), the “3MI fat content, range” value was 0.07 to 0.3 mg/kg.
With `CC1C(=O)Nc2ccccc21` (centres unmarked) [3-methyloxindole], in data set [1], the “Maximum rate of production” value came out at 700.8 pmol/mg prot./min and the “Minimum rate of production” value is listed as 234.4 pmol/mg prot./min. Besides, in data set [1] (pig liver microsomes), the “Rate of Production (pmol/mg prot./min) ±SD” value is 420.9 ± 118.1 pmol/mg prot./min and the “Percentage … (average)” value is 27.9%. The “Percentage of the metabolites formed” value in data set [2] is given as 5%.
For the compound `Cc1c[nH]c2ccc(O)cc12` [5-OH-3-methylindole], in data set [1], the “Maximum rate of production” value is 27.3 pmol/mg prot./min and the “Minimum rate of production” value is 0.7 pmol/mg prot./min. In addition, in data set [1] (pig liver microsomes), the “Rate of Production (pmol/mg prot./min) ±SD” value is listed as 5.1 ± 5.8 pmol/mg prot./min and the “Percentage … (average)” value is 0.3%. Besides, in data set [1] (pig liver microsomes, listed as 5-OH-3MI), the “Rate of Production (pmol/mg prot./min) ±SD” value is listed as 5.1 pmol/mg prot./min.
Consider `Cc1c[nH]c2cc(O)ccc12` [6-OH-3-methylindole, 6-OH-3-methylindole], for which the “Average rate of production relative to the 5 isomer” value in data set [1] (6-OH-3MI versus 5-OH-3MI, pig liver microsomes) was “approximately eleven times greater”. Moreover, the “Maximum rate of production” value in data set [1] is 213.7 pmol/mg prot./min. Also, in data set [1] (pig liver microsomes), the “Rate of Production (pmol/mg prot./min) ±SD” value is 58.4 ± 47.2 pmol/mg prot./min and the “Percentage … (average)” value stood at 4.9%.
As to `OCc1c[nH]c2ccccc12` [Indole-3-carbinol, indole-3-carbinol], in data set [1], the “Maximum rate of production” value is given as 85.7 pmol/mg prot./min and the “Minimum rate of production” value worked out at 12.1 pmol/mg prot./min. Moreover, in data set [1] (pig liver microsomes), the “Rate of Production (pmol/mg prot./min) ±SD” value came out at 37.1 ± 15.8 pmol/mg prot./min.
On to `CC1(O)C=Nc2ccccc21` (centres unmarked) [UV-1, 3-hydroxy-3-methylindolenine], for which the “Stability (in words)” value in data set [6] was “unstable compound”. Further, the Original compound remaining entry in data set [6] (acetonitrile:water solution, room temperature, after 6 weeks, converted into 3MOI) is recorded as “about 25%”. Besides, in data set [1], the “Maximum rate of production” value came to 1556.3 pmol/mg prot./min and the “Minimum rate of production” value is recorded as 180.5 pmol/mg prot./min. In addition, in data set [1] (pig liver microsomes), the “Rate of Production (pmol/mg prot./min) ±SD” value is 750.7 pmol/mg prot./min and 750.7 ± 414.5 pmol/mg prot./min; the “Percentage … (average)” value is given as 45.1%.
As to `Oc1ncnc2[nH]ncc12` [allopurinol], the “Effect on the conversion of HMI to HMOI” value in the data set on aldehyde oxidase [7] is “did not affect; also recorded: lack of inhibition”.
In the data set on aldehyde oxidase [8], `CCN(CC)CCCC(C)Nc1c2ccc(Cl)cc2nc2ccc(OC)cc12` (centres unmarked) [quinacrine] gave an activity at 10 min, 50 µM of 75.5% and an activity at 10 min, 1 mM of 43.4%.
